Measured values: US20180179198A1, “TRICYCLIC MODULATORS OF TNF SIGNALING” (AbbVie Inc., priority 2015, published 2018)
pIC50: −log10 of the molar value. Where a name gives a salt, the structure may show the parent alone.

target: TNFα trimer (Homo sapiens, UniProt P01375); assay: TNFα FP Competitive Binding Assay; details: fluorescence polarization competition; 20 nM TNFα trimer, 1 nM OregonGreen488 probe; read-out: TNF IC50 (TNFα FP binding assay IC50)
How it was run: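 Fluorescence polarization displacement: 20 nM TNFα trimer (60 nM protein) with 1 nM fluorescein-labelled bis-isoquinoline probe in HEPES/NaCl/EDTA/Triton X-100 buffer. 12-point 1:3 compound series, top final 338 μM (3.4% DMSO) or 100 μM (2.0% DMSO); 18-24 h at 37 °C, then 1 h rt before background-subtracted mP read; variable-slope curve fit.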

Chain of TNFα trimer (P01375 77-233 limits assumed): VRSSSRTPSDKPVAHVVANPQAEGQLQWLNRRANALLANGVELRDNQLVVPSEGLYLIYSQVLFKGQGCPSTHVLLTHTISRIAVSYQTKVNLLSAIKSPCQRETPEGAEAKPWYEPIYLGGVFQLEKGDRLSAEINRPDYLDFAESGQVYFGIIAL

Row | Structure (SMILES) | pIC50
1 | c1ccc(C2CCc3nc4ccc(N5CCN(c6ncccn6)CC5)nc4n32)cc1 (centres unmarked) [Example 18, 8-Phenyl-2-(4-(pyrimidin-2-yl)piperazin-1-yl)-7,8-dihydro-6H-pyrrolo[2′,1′:2,3]imidazo[4,5-b]pyridine] | 5.00 to 6.00
2 | c1ccc([C@@H]2COCc3nc4ccc(-c5cnc(N6CCOCC6)nc5)cc4n32)cc1 [Example 20, (R)-7-(2-Morpholinopyrimidin-5-yl)-4-phenyl-3,4-dihydro-1H-benzo[4,5]imidazo[2,1-c][1,4]oxazine] | 4.00 to 5.00
3 | O=C(O)C1CCN(c2ncc(-c3ccc4nc5n(c4c3)C(c3ccccc3)COC5)cn2)CC1 (centres unmarked) [Example 22, 1-(5-(4-Phenyl-3,4-dihydro-1H-benzo[4,5]imidazo[2,1-c][1,4]oxazin-7-yl)pyrimidin-2-yl)piperidine-4-carboxylic acid] | 5.00 to 6.00
4 | COc1ccccc1C1CCCc2nc3ccc(-c4ccc(C(=O)O)s4)cn3c21 (centres unmarked) [Example 23, 5-(9-(2-Methoxyphenyl)-6,7,8,9-tetrahydrobenzo[4,5]imidazo[1,2-a]pyridin-2-yl)thiophene-2-carboxylic acid] | 5.00 to 6.00
5 | CC(C)(O)c1ncc(-c2ccc3nc4n(c3c2)C(c2ccccn2)CC4)cn1 (centres unmarked) [Example 28, 2-(5-(1-(Pyridin-2-yl)-2,3-dihydro-1H-benzo[d]pyrrolo[1,2-a]imidazol-7-yl)pyrimidin-2-yl)propan-2-ol] | 5.00 to 6.00
6 | CC(C)(O)c1ncc(-c2ccc3nc4n(c3n2)C(c2ccccn2)CC4)cn1 (centres unmarked) [Example 29, 2-(5-(8-(Pyridin-2-yl)-7,8-dihydro-6H-pyrrolo[2′,1′:2,3]imidazo[4,5-b]pyridin-2-yl)pyrimidin-2-yl)propan-2-ol] | 5.00 to 6.00
7 | CC(C)(O)c1ncc(-c2ccc3nc4n(c3c2)C(C2CCOCC2)CC4)cn1 (centres unmarked) [Example 38, 2-(5-(1-(Tetrahydro-2H-pyran-4-yl)-2,3-dihydro-1H-benzo[d]pyrrolo[1,2-a]imidazol-7-yl)pyrimidin-2-yl)propan-2-ol] | 4.00 to 5.00
8 | OC[C@H]1CCCN1c1ncc(-c2ccc3nc4n(c3n2)[C@@H](c2ccccc2)CC4)cn1 [Example 40, ((R)-1-(5-((R)-8-Phenyl-7,8-dihydro-6H-pyrrolo[2′,1′:2,3]imidazo[4,5-b]pyridin-2-yl)pyrimidin-2-yl)pyrrolidin-2-yl)methanol] | 5.00 to 6.00
9 | CC(=O)N1CCN(c2ncc(-c3ccc4nc5n(c4n3)[C@@H](c3ccccc3)CC5)cn2)C[C@@H]1C [Example 42, 1-((S)-2-Methyl-4-(5-((R)-8-phenyl-7,8-dihydro-6H-pyrrolo[2′,1′:2,3]imidazo[4,5-b]pyridin-2-yl)pyrimidin-2-yl)piperazin-1-yl)ethanone] | > 6.00
10 | C[C@@H]1CN(c2ncc(-c3ccc4nc5n(c4n3)[C@@H](c3ccccc3)CC5)cn2)CCN1C(=O)CO [Example 43, 2-Hydroxy-1-((R)-2-methyl-4-(5-((R)-8-phenyl-7,8-dihydro-6H-pyrrolo[2′,1′:2,3]imidazo[4,5-b]pyridin-2-yl)pyrimidin-2-yl)piperazin-1-yl)ethanone] | > 6.00
11 | CC(=O)N1CCN(c2ncc(-c3ccc4nc5n(c4n3)[C@@H](c3cccc(CO)c3)CC5)cn2)C[C@H]1C [Example 44, 1-((R)-4-(5-((R)-8-(3-(Hydroxymethyl)phenyl)-7,8-dihydro-6H-pyrrolo[2′,1′:2,3]imidazo[4,5-b]pyridin-2-yl)pyrimidin-2-yl)-2-methylpiperazin-1-yl)ethanone] | > 6.00
12 | CC(C)[C@H](N)C(=O)OC1CCN(c2ncc(-c3ccc4nc5n(c4n3)[C@@H](c3ccccc3)CC5)cn2)CC1 [Example 46, (S)-1-(5-((R)-8-Phenyl-7,8-dihydro-6H-pyrrolo[2′,1′:2,3]imidazo[4,5-b]pyridin-2-yl)pyrimidin-2-yl)piperidin-4-yl 2-amino-3-methylbutanoate] | 5.00 to 6.00
13 | O=P(O)(O)OC1CCN(c2ncc(-c3ccc4nc5n(c4n3)[C@@H](c3ccccc3)CC5)cn2)CC1 [Example 46.1, (R)-1-(5-(8-Phenyl-7,8-dihydro-6H-pyrrolo[2′,1′:2,3]imidazo[4,5-b]pyridin-2-yl)pyrimidin-2-yl)piperidin-4-yl dihydrogen phosphate hydrochloride] | 5.00 to 6.00
14 | c1ccc([C@H]2CCc3nc4ccc(-c5ccnc(OC6CCOCC6)c5)nc4n32)cc1 [Example 47, (R)-8-Phenyl-2-(2-((tetrahydro-2H-pyran-4-yl)oxy)pyridin-4-yl)-7,8-dihydro-6H-pyrrolo[2′,1′:2,3]imidazo[4,5-b]pyridine] | > 6.00
15 | c1ccc([C@H]2CCc3nc4ccc(-c5ccnc(OC6CCCOC6)c5)nc4n32)cc1 (stereo partly drawn) [Example 48, (8R)-8-Phenyl-2-(2-((tetrahydro-2H-pyran-3-yl)oxy)pyridin-4-yl)-7,8-dihydro-6H-pyrrolo[2′,1′:2,3]imidazo[4,5-b]pyridine] | 5.00 to 6.00
16 | c1ccc([C@H]2CCc3nc4ccc(-c5ccnc(O[C@H]6CCNC6)c5)nc4n32)cc1 [Example 49] | 5.00 to 6.00
17 | OC1CCN(c2ncc(-c3ccc4nc5n(c4n3)C3(COC5)COc4ccccc43)cn2)CC1 (centres unmarked) [Example 50, 1-(5-(6′,8′-Dihydro-2H-spiro[benzofuran-3,9′-pyrido[3′,2′:4,5]imidazo[2,1-c][1,4]oxazin]-2′-yl)pyrimidin-2-yl)piperidin-4-ol] | > 6.00

Now from value to compound:

Row | pIC50 | Structure (SMILES)
18 | > 6.00 | CC(C)(O)c1ncc(-c2ccc3nc4n(c3c2)C(C2CCCCC2)CC4)cn1 (centres unmarked) [Example 17, 2-(5-(1-Cyclohexyl-2,3-dihydro-H-benzo[d]pyrrolo[1,2-a]imidazol-7-yl)pyrimidin-2-yl)propan-2-ol]
19 | > 6.00 | c1ccc(C2COCc3nc4ccc(-c5cnc(N6CCOCC6)nc5)cc4n32)cc1 (centres unmarked) [Example 19, 7-(2-Morpholinopyrimidin-5-yl)-4-phenyl-3,4-dihydro-H-benzo[4,5]imidazo[2,1-c][1,4]oxazine]
20 | > 6.00 | O=C1NC[C@@H]2CN(c3ncc(-c4ccc5nc6n(c5c4)[C@@H](c4ccccc4)CC6)cn3)CCN12 [Example 24, (R)-7-(5-((R)-1-Phenyl-2,3-dihydro-1H-benzo[d]pyrrolo[1,2-a]imidazol-7-yl)pyrimidin-2-yl)hexahydroimidazo[1,5-a]pyrazin-3(2H)-one]
21 | > 6.00 | O=C1NC[C@H]2CN(c3ncc(-c4ccc5nc6n(c5c4)[C@@H](c4ccccc4)CC6)cn3)CCN12 [Example 25, (S)-7-(5-((R)-1-Phenyl-2,3-dihydro-1H-benzo[d]pyrrolo[1,2-a]imidazol-7-yl)pyrimidin-2-yl)hexahydroimidazo[1,5-a]pyrazin-3(2H)-one]
22 | > 6.00 | O=C1NC[C@@H]2CN(c3ncc(-c4ccc5nc6n(c5c4)[C@@H](c4ccccc4)COC6)cn3)CCN12 [Example 26, (R)-7-(5-((S)-4-Phenyl-3,4-dihydro-1H-benzo[4,5]imidazo[2,1-c][1,4]oxazin-7-yl)pyrimidin-2-yl)hexahydroimidazo[1,5-a]pyrazin-3(2H)-one]
23 | > 6.00 | O=C1NC[C@H]2CN(c3ncc(-c4ccc5nc6n(c5c4)[C@@H](c4ccccc4)COC6)cn3)CCN12 [Example 27, (S)-7-(5-((S)-4-Phenyl-3,4-dihydro-1H-benzo[4,5]imidazo[2,1-c][1,4]oxazin-7-yl)pyrimidin-2-yl)hexahydroimidazo[1,5-a]pyrazin-3(2)-one]
24 | > 6.00 | O=C1NC[C@H]2CN(c3ncc(-c4ccc5nc6n(c5n4)[C@@H](c4ccccc4)CC6)cn3)CCN12 [Example 31, (S)-7-(5-((R)-8-Phenyl-7,8-dihydro-6H-pyrrolo[2′,1′:2,3]imidazo[4,5-b]pyridin-2-yl)pyrimidin-2-yl)hexahydroimidazo[1,5-a]pyrazin-3(2H)-one]
25 | > 6.00 | COc1ccccc1C1COCc2nc3ccc(-c4cnc(C(C)(C)O)nc4)cn3c21 (centres unmarked) [Example 32, 2-(5-(4-(2-Methoxyphenyl)-3,4-dihydro-1H-pyrano[3′,4′:4,5]imidazo[1,2-a]pyridin-7-yl)pyrimidin-2-yl)propan-2-ol]
26 | > 6.00 | OC1CCN(c2ncc(-c3ccc4nc5c(n4n3)C(c3ccccc3)CC5)cn2)CC1 (centres unmarked) [Example 33, 1-(5-(8-Phenyl-7,8-dihydro-6H-cyclopenta[4,5]imidazo[1,2-b]pyridazin-2-yl)pyrimidin-2-yl)piperidin-4-ol]
27 | > 6.00 | COc1ccccc1C1CCc2nc3ccc(-c4cnc(N5CCN6C(=O)NCC6C5)nc4)nn3c21 (centres unmarked) [Example 34, 7-(5-(8-(2-Methoxyphenyl)-7,8-dihydro-6H-cyclopenta[4,5]imidazo[1,2-b]pyridazin-2-yl)pyrimidin-2-yl)hexahydroimidazo[1,5-a]pyrazine-3(2H)-one]
28 | > 6.00 | O=C1NCC2CN(c3ncc(-c4ccc5nc6n(c5c4)C(c4ccccc4C(F)(F)F)COC6)cn3)CCN12 (centres unmarked) [Example 35, 7-(5-(4-(2-(Trifluoromethyl)phenyl)-3,4-dihydro-H-benzo[4,5]imidazo[2,1-c][1,4]oxazin-7-yl)pyrimidin-2-yl)hexahydroimidazo[1,5-a]pyrazin-3(2H)-one]
29 | > 6.00 | NC1CC2(CCN(c3ncc(-c4ccc5nc6n(c5c4)[C@@H](c4ccccc4)COC6)cn3)CC2)C1 [Example 36, (S)-7-(5-(4-Phenyl-3,4-dihydro-1H-benzo[4,5]imidazo[2,1-c][1,4]oxazin-7-yl)pyrimidin-2-yl)-7-azaspiro[3.5]nonan-2-amine]
30 | > 6.00 | c1ccc([C@H]2COCc3nc4ccc(-c5cnc(N6[C@H]7CCC[C@@H]6CNCC7)nc5)cc4n32)cc1 [Example 37]
31 | > 6.00 | CC(C)(O)c1ncc(-c2ccc3nc4n(c3n2)C(C)(c2ccccc2)CC4)cn1 (centres unmarked) [Example 39, 2-(5-(8-Methyl-8-phenyl-7,8-dihydro-6H-pyrrolo[2′,1′:2,3]imidazo[4,5-b]pyridin-2-yl)pyrimidin-2-yl)propan-2-ol]
32 | > 6.00 | CC(=O)N1CCN(c2ncc(-c3ccc4nc5n(c4n3)[C@@H](c3ccccc3)CC5)cn2)C[C@H]1C [Example 41, 1-((R)-2-Methyl-4-(5-((R)-8-phenyl-7,8-dihydro-6H-pyrrolo[2′,1′:2,3]imidazo[4,5-b]pyridin-2-yl)pyrimidin-2-yl)piperazin-1-yl)ethanone]
